Measured values reported in publication PMC8879474, “Tissue Transglutaminase but Not Microbial Transglutaminase Is Inhibited by Exogenous Oxidative Substances in Celiac Disease” (International Journal of Molecular Sciences, 2022).
pIC50: −log10 of the molar value.

Target: T1, transglutaminase 2 (TG2, tissue transglutaminase) (Homo sapiens, UniProt P21980)
T1 construct: gene TGM2
T1 sequence (P21980 2-687): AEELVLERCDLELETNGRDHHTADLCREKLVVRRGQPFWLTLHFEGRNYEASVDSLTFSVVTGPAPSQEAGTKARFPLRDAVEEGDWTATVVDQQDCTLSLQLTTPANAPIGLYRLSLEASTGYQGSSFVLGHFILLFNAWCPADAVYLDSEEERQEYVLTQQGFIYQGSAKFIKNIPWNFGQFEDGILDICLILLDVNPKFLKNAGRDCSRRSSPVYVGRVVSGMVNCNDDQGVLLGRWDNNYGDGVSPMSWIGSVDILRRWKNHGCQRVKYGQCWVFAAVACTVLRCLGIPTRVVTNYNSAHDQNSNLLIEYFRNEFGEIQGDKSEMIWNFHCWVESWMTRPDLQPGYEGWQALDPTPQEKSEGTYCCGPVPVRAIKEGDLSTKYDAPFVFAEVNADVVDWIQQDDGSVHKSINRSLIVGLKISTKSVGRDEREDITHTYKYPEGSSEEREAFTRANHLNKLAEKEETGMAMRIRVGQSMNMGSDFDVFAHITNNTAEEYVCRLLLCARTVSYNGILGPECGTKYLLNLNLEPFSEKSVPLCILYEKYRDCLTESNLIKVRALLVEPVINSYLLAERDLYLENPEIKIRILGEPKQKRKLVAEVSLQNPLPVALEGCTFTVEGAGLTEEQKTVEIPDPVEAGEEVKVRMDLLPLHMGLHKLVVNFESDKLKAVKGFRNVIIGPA
Assay: in vitro 5BP transamidation assay with immobilized TG2 ([…]), photometric
Assay type: biochemical

SMILES	pIC50
N[C@@H](CSSC[C@H](N)C(=O)O)C(=O)O [L-cystine]	3.85
CCC(C)SSc1ncc[nH]1 (centres unmarked) [PX12, 1-methylpropyl 2-imidazolyl disulfide]	6.15
